Source: patent EP4129319A1, “PORE-FORMING ANTIMICROBIAL PEPTIDES” (priority 2021, dated 2023)
Where two headings read alike, the source gives them in different places. Ends that are not written are not given here.

Assays:
Calcein leakage assay = type: biochemical; conditions: for Extent of leakage (in percentage) at increasing peptide-to-lipid ratio (mol/mol) 1:10 / Extent of leakage (in percentage) at increasing peptide-to-lipid ratio (mol/mol) 1:20 / Extent of leakage (in percentage) at increasing peptide-to-lipid ratio (mol/mol) 1:50 / Extent of leakage (in percentage) at increasing peptide-to-lipid ratio (mol/mol) 1:100: calcein leakage, POPC:POPG (1:1 mol/mol) LUVs; for Extent of leakage (in percentage) at increasing peptide-to-lipid ratio (mol/mol) 1:10: peptide-to-lipid ratio 1:10 (mol/mol); for Extent of leakage (in percentage) at increasing peptide-to-lipid ratio (mol/mol) 1:20: peptide-to-lipid ratio 1:20 (mol/mol); for Extent of leakage (in percentage) at increasing peptide-to-lipid ratio (mol/mol) 1:50: peptide-to-lipid ratio 1:50 (mol/mol); for Extent of leakage (in percentage) at increasing peptide-to-lipid ratio (mol/mol) 1:100: peptide-to-lipid ratio 1:100 (mol/mol); for calcein / vesicle leakage, pore-forming ability (in words): POPC:POPG (1:1) LUVs
Description: (§1) Chemicals. […] (Prague, Czech Republic), and Caslo ApS (Kongens Lyngby, Denmark). […] The bacterial stock was stored at -80°C.
Calcein leakage assay. Pore-forming activity of the peptides was tested by their ability to leak the self-quenching fluorescent dye calcein entrapped within POPC:POPG (1:1 mol/mol) large unilamellar vesicles (LUVs). After mixing DiD to the lipid mixture (in the ratio 1:500 mol/mol), a thin lipid film was created by evaporating of the chloroform, traces of which were removed by desiccating overnight. The lipid film was then dissolved in calcein buffer, followed by vigorous vortexing. The lipid suspension was subsequently subjected to 10 freeze-thaw cycles. To obtain uniform LUVs, the sample was passed 50 times back and forth through an extruder stacked with 100 nm pore size polycarbonate membrane filter. Afterwards, the untrapped calcein was removed on a HiTrap Desalting Column (with Sephadex G-25 Superfine resin) by washing with PBS buffer. The concentration of the lipid suspension was then adjusted to 0.02 mM. The concentration of the peptide solution was 0.1 mM. The inventors monitored the peptide-induced release of calcein from LUVs by the increase in fluorescence intensity after adding increasing amounts of peptides to the LUVs under constant stirring at 25 °C. The investigated range of peptide/lipid molecular ratio was from 1:100 to 1:10. The excitation and emission wavelengths were set to 495 nm and 520 nm, respectively. Maximum fluorescence intensity was obtained by disrupting all the vesicles in the end by adding 10% Triton X-100. Experiments were performed in triplicates with independently prepared lipid vesicles.

[1] = system: human red blood cells (HRBCs); type: cell-based
Description: as §1
Hemolysis assay. Hemolytic toxicity of the peptides was evaluated from their ability to lyse the fresh human red blood cells (HRBCs) collected from the University Hospital (Brno, Czech Republic). To obtain the erythrocyte pellets, the blood samples were centrifuged twice at 700×g and subsequently, once at 1000×g, each for 8 min. at 4 °C, which was followed by thorough washing with PBS. Resuspension of the pellets was done in PBS to obtain 0.5% (vol/vol) RBC suspension. In a well plate with 96 V-shaped bottom wells, the peptides were added in a dilution series from 0.1 to 50 µM concentration. Subsequently, HRBC suspension was added in each well. Negative control wells contained only PBS and HRBC suspension without any peptide (i.e., 0% lysis), and positive control wells included 5 µM melittin in the HRBC suspension. After incubation for 1 h at 37 °C, the well plates were centrifuged at 1000×g for 10 min. at 4 °C. Subsequently, the supernatant was collected in a flat-bottomed well plate and the optical density of the released hemoglobin was measured for each well at 415 nm wavelength. The calculated absorbances from the wells were then normalized against the averaged absorbances of the positive and the negative control wells. EC50 value was calculated from the normalized absorbances indicating 50% hemolysis of HRBCs. Experiments were performed in triplicates with three independent blood samples.

[2] = system: Gram-positive Staphylococcus carnosus CCM 4838T; type: cell-based; conditions: for MIC against S. carnosus: 24 h at 37 °C, dilution series 50 to 0.1 µM; for times higher MIC than that of ampicillin, S. carnosus: ratio to ampicillin
Description: as §1
(§2) Broth microdilution assay. Antimicrobial activity of the peptides was investigated against Gram-negative Escherichia coli TOP10 strain and Gram-positive Staphylococcus carnosus CCM 4838T using broth microdilution assay, based on which the inventors determined the bacterial minimum inhibition concentration (MIC). After cross streaking with bacteria, the petri dishes (with MHA) were incubated for 24 h at 37 °C. Overnight grown cultures were then sub-cultured for 4-6 h at 37 °C in test tubes containing MHB. The sub-cultured solutions were subsequently diluted to a standard concentration of 10^6 colony forming units (CFU) per mL. Cell counts were determined by measuring the optical density at 600 nm. In a flat-bottomed 96 well plate, the inventors prepared a dilution series for the peptides and for the reference antibiotic ampicillin from 50 to 0.1 µM concentration, which was then inoculated with bacteria and incubated for 24 h at 37 °C. Growth control wells were free from peptides or ampicillin to show the viability of the bacteria, and sterility control wells were free from bacterial inoculation to verify the sterility of the medium. The bacterial growth was visually evaluated based on the turbidity. MIC was determined as the lowest concentrated well where no visible bacterial growth was observed. To test the bacteriostatic or bacteriocidal activity of the peptides, 50 µl solution from the highest concentrated well (i.e., 50 µM) was transferred to a test tube containing 4 mL sterile MHB and incubated for 24 h at 37 °C under constant stirring. Streaking of the same solution was done on MHA containing petri dishes and incubated for 24 h at 37 °C to confirm the morphology of the colonies grown. Experiments were performed in triplicates.

[3] = system: Gram-negative Escherichia coli TOP10 strain; type: cell-based; conditions: for Antibacterial activity (MIC in µM) E. coli TOP10: broth microdilution assay
Description: as §1, §2

[4] = system: human dermal fibroblast (HDF) cell lines; assay: Neutral red uptake assay (cytotoxicity); type: cell-based
Description: Neutral red uptake assay. To evaluate the cytotoxicity of the peptides against human dermal fibroblast (HDF) cell lines, the inventors purchased the neutral red uptake assay from Essence Line (Praha, Czech Republic). The initial cell culture was sub-cultured in supplemented Dulbecco's Modified Eagle Medium (DMEM) and diluted to a cell density of 1 × 10^5 cells/mL. The diluted culture was then seeded into the wells (1 × 10^4

[5] = system: Klebsiella pneumoniae ATCC 700603; type: cell-based; conditions: ESKAPE panel; strain not given, ampicillin > 16 fits the 16-to-0.03 µM series of Evotec
Description: as §2
(§3) The antimicrobial susceptibility test of the most promising peptide against the recalcitrant ESKAPE pathogens was purchased from Evotec (Macclesfield, UK) for the following strains: Enterococcus faecium ATCC 700221, Staphylococcus aureus NRS 1, Klebsiella pneumoniae ATCC 700603, Acinetobacter baumanni GSAB 164, Pseudomonas aeruginosa ATCC 13437, Escherichia coli ATCC 25922 and Enterobacter aerogenes B207A, and was purchased from Essence Line (Praha, Czech Republic) against the following strains: Enterococcus faecium ATCC 29212, Enterococcus hirae ATCC 10541, Staphylococcus aureus ATCC 6538, ATCC 29213, Methicillin-resistant Staphylococcus aureus (MRSA) CNCTC 7452, Klebsiella pneumoniae ATCC 10031, Acinetobacter baumanni ATCC 19606, Pseudomonas aeruginosa ATCC 15442 and Escherichia coli ATCC 10536 and ATCC 35218. […]

[6] = system: Escherichia coli ATCC 25922; type: cell-based; conditions: strain not given, assigned to the Evotec series
Description: as §2, §3

[7] = system: Enterococcus faecium ATCC 700221; type: cell-based; conditions: ESKAPE panel; strain not given, ampicillin > 16 fits the 16-to-0.03 µM series of Evotec
Description: as §2, §3

[8] = system: Acinetobacter baumanni GSAB 164; type: cell-based; conditions: ESKAPE panel; strain not given, ampicillin > 16 fits the 16-to-0.03 µM series of Evotec
Description: as §2, §3

[9] = hemolysis assay, HRBCs, read-out: Toxicity (EC50 in µM) HRBCs

Substance | Extent of leakage (in percentage) at increasing peptide-to-lipid ratio (mol/mol) 1:20 (Calcein leakage assay) [percentage] | Extent of leakage (in percentage) at increasing peptide-to-lipid ratio (mol/mol) 1:50 (Calcein leakage assay) [percentage] | Extent of leakage (in percentage) at increasing peptide-to-lipid ratio (mol/mol) 1:100 (Calcein leakage assay) [percentage] | EC50 [1] [µM] | Antibacterial activity (MIC in µM) E. coli TOP10 [3] [µM] | EC50 [1, 9] [µM] | Antibacterial activity (MIC in µM) S. carnosus ([2]; CCM 4838) [µM] | EC50 [4] [µM] | further results
KKKKLKKFFKKLIQLINQLFDDLDDFKKKK-NH2 [KDFD24+9-NH2] | 81.5 ± 6.8 | 42.6 ± 11.5 | 13.0 ± 5.2 | > 50 | 12.5 |  |  |  | Extent of leakage (in percentage) at increasing peptide-to-lipid ratio (mol/mol) 1:10 (Calcein leakage assay): 98.7 ± 3.2 percentage; Antibacterial activity (MIC in µM) S. carnosus ([2]; broth microdilution assay, S. carnosus): 12.5 µM
KKKKLKKILKKLFQFIDQLDNDLQDIKKKK (not fully specified (C-terminus)) [KDFC16+9-NH2, group C peptide, net charge +9 e; 89] | 98.3 ± 5.2 | 97.4 ± 9.3 | 78.2 ± 4.5 |  | 0.8 | > 50 |  |  | Extent of leakage (in percentage) at increasing peptide-to-lipid ratio (mol/mol) 1:10 (Calcein leakage assay): 99.28 ± 1.2 percentage; MIC against S. carnosus [2]: 0.4 µM; times higher MIC than that of ampicillin, S. carnosus [2]: 4; MIC against E. coli ([3]; 24 h at 37 °C, dilution series 50 to 0.1 µM): 0.8 µM; times lower MIC than the MIC of ampicillin, E. coli ([3]; ratio to ampicillin): 15; EC50 ([4]; HDFs, column stands under the head 'Hemolysis assay', read-out: Toxicity (EC50 in µM) HDFs): 10 µM
KKKKLKKILKKLFQFIDQLINDLQNIKKKK-NH2 [KDFA5+11-NH2] | 101.6 ± 1.4 | 78.0 ± 4.3 | 38.6 ± 3.5 |  | 1.6 | > 50 | 1.6 |  | 
KKKKLKKILKKLFQFINQLDNQLQDIKKKK-NH2 [KDFA2i+11-NH2] |  |  |  |  | 0.2 | > 50 | 0.2 |  | MIC against K. pneumoniae [5]: 3.8 µM; MIC against E. coli (ESKAPE panel) [6]: 1.4 µM; MIC against E. faecium [7]: 1.9 µM; MIC against A. baumannii [8]: 1.4 µM
KKKKLKKILKKLFQFINQLDNQLQDIKQNK-NH2 [KDFA2i+9-NH2] |  |  |  |  | 0.8 | > 50 | 0.8 | 97 | 
KKKKLKKILKKLFQFINQLIDDLDDIKKKK-NH2 [KDFC21+9-NH2] | 99.4 ± 1.6 | 78.2 ± 1.2 |  | > 50 | 3.1 |  | 3.1 |  | Extent of leakage (in percentage) at increasing peptide-to-lipid ratio (mol/mol) 1:10 (Calcein leakage assay): 102.2 ± 1.1 percentage
KKKKLRRILRRLFQFINQLDNQLQDIKQNK-NH2 [RDFA2i+9-NH2-Kter] |  | 100.7 ± 1.0 | 76.0 ± 3.3 |  | 0.2 | 49 | 0.4 |  | antimicrobial activity against S. carnosus (in words) [2]: more effective against S. carnosus
KKKKVKKVVKKVFSFVDSVDSDVSDVKKKK-NH2 [KDFC16+9SV-NH2] |  |  |  | > 50 | 25 |  |  | > 150 | calcein / vesicle leakage, pore-forming ability (in words) (Calcein leakage assay): did not cause calcein leakage; MIC against S. carnosus [2]: 0.4 µM; times higher MIC than that of ampicillin, S. carnosus [2]: 4
KQKKLKKFFNQLIQLINQLFNQLDDFNQNK [KDFB12] | 101.5 ± 0.6 | 98.2 ± 0.7 | 79.4 ± 3.7 | > 50 | 6.3 |  | 6.3 | 20 | 
NQKKLQNILNKLFKFIDDLINQLQNIKKQN [KDFA9] | 102.0 ± 1.4 | 92.0 ± 0.3 | 62.6 ± 5.2 | > 50 | > 50 |  | > 50 |  | calcein / vesicle leakage, pore-forming ability (in words) (Calcein leakage assay): retained
RRRRLKKILKKLFQFINQLDNQLQDIRQNR-NH2 [KDFA2i+9-NH2-Rter] | 103.3 ± 1.2 | 98.8 ± 1.2 | 65.5 ± 4.2 |  | 0.4 | 6.9 | 0.8 |  | 
RRRRLRRILRRLFQFINQLDNQLQDIRQNR-NH2 [RDFA2i+9-NH2] |  | 101.1 ± 0.8 | 65.8 ± 4.1 | 0.9 | 1.6 |  | 0.8 | 16 | EC50 ([1]; 1 h): 0.9 µM
